Source: PMC10331583, “Control of fibrosis with enhanced safety via asymmetric inhibition of prolyl‐tRNA synthetase 1” (EMBO Molecular Medicine, 2023)
Values joined by “and” are separate entries in the source; they are usually repeats but may differ in a detail not shown here. Equal values may be shown once.

Assays:
[1] = test system: WI‐26 VA4 cells stably expressing PARS1 FA/EA/RL mutant; experiment: Collagen ELISA in cells stably expressing PARS1 mutant; conditions: WI-26 VA4 Flag-PARS1 FA/EA/RL; for Collagen level, single replicates: replicates of Experiments #1-#4; for Collagen level, average: average of 4 experiments
[2] = test system: WI‐26 VA4 cells stably expressing EV (empty vector); experiment: Collagen ELISA in cells stably expressing EV; conditions: for Collagen level, average: average of 4 experiments; for Collagen level, single replicates: replicates of Experiments #1-#4

Q: With `O=C(CC1NCCCC1O)Cn1cnc2cc(Br)c(Cl)cc2c1=O` (stereo not drawn) [HF, Halofuginone, reference compound] as the compound, how does the “Collagen level, single replicates” value ([1]; 0.3 nM) read?
A: 102.13 % of control and 120.79 % of control and 96.95 % of control and 94.78 % of control and 97.01 % of control and 91.61 % of control and 85.22 % of control and 99.08 % of control and 88.51 % of control and 103.40 % of control and 115.28 % of control and 123.69 % of control

Q: And the “Collagen level, average” value ([1]; 1 nM)?
A: 101.93 % of control

Q: What about the “Collagen level, single replicates” value ([1]; 1 nM) of the same compound?
A: 100.26 % of control and 124.52 % of control and 104.32 % of control and 114.35 % of control and 95.53 % of control and 102.09 % of control and 95.23 % of control and 96.53 % of control and 98.60 % of control and 104.60 % of control and 92.58 % of control and 94.60 % of control

Q: What about the “Collagen level, average” value ([1]; 3 nM) of the same compound?
A: 97.24 % of control

Q: And the “Collagen level, single replicates” value ([1]; 3 nM)?
A: 74.39 % of control and 119.08 % of control and 111.81 % of control and 77.98 % of control and 96.46 % of control and 94.83 % of control and 78.75 % of control and 99.39 % of control and 89.90 % of control and 103.30 % of control and 102.16 % of control and 118.87 % of control

Q: And the “Collagen level, average” value ([1]; 10 nM)?
A: 70.83 % of control

Q: What about the “Collagen level, single replicates” value ([1]; 10 nM) of the same compound?
A: 64.31 % of control and 91.60 % of control and 60.26 % of control and 74.23 % of control and 77.87 % of control and 69.39 % of control and 82.84 % of control and 75.26 % of control and 63.48 % of control and 78.01 % of control and 54.94 % of control and 57.79 % of control

Q: And the “Collagen level, average” value ([1]; 30 nM)?
A: 26.11 % of control

Q: And the “Collagen level, single replicates” value ([1]; 30 nM)?
A: 25.57 % of control and 24.68 % of control and 22.36 % of control and 32.03 % of control and 25.38 % of control and 25.85 % of control and 26.88 % of control and 24.32 % of control and 26.43 % of control and 20.94 % of control and 29.04 % of control and 29.85 % of control

Q: And the “Collagen level, average” value ([1]; 100 nM)?
A: 4.47 % of control

Q: And the “Collagen level, single replicates” value ([1]; 100 nM)?
A: 4.44 % of control and 3.82 % of control and 4.24 % of control and 4.79 % of control and 5.13 % of control and 4.94 % of control and 4.02 % of control and 4.80 % of control and 4.41 % of control and 3.44 % of control and 4.93 % of control and 4.63 % of control

Q: And the “Collagen level, average” value ([1]; 300 nM)?
A: 3.35 % of control

Q: And the “Collagen level, single replicates” value ([1]; 300 nM)?
A: 2.94 % of control and 2.13 % of control and 2.73 % of control and 2.78 % of control and 5.38 % of control and 5.19 % of control and 3.51 % of control and 3.53 % of control and 4.16 % of control and 2.06 % of control and 3.52 % of control and 2.22 % of control

Q: And the “Collagen level, average” value ([1]; 1000 nM)?
A: 4.10 % of control

Q: And the “Collagen level, single replicates” value ([1]; 1000 nM)?
A: 4.74 % of control and 3.22 % of control and 4.71 % of control and 3.16 % of control and 4.63 % of control and 4.53 % of control (2×) and 4.37 % of control and 4.67 % of control and 2.44 % of control and 4.55 % of control and 3.67 % of control

Q: What about the “HillSlope, collagen level” value ([1]; four-parameter fit) of the same compound?
A: -1.829

Q: And the “LogIC50, collagen level” value ([1]; log of concentration in nM, four-parameter fit)?
A: 1.188

Q: And the IC50 ([2]; Homo sapiens, WI26VA4, read-out: IC50, collagen level)?
A: 15.2 nM

Q: What about the “Collagen level, average” value ([2]; WI-26 VA4 EV, 0.3 nM) of the same compound?
A: 105.43 % of control

Q: What about the “Collagen level, single replicates” value ([2]; WI-26 VA4 EV, 0.3 nM) of the same compound?
A: 107.71 % of control and 102.31 % of control and 99.56 % of control and 107.96 % of control and 119.37 % of control and 97.79 % of control and 105.72 % of control and 112.41 % of control and 97.00 % of control and 105.68 % of control and 103.25 % of control

Q: And the “Collagen level, average” value ([2]; WI-26 VA4 EV, 1 nM)?
A: 98.88 % of control

Q: What about the “Collagen level, single replicates” value ([2]; WI-26 VA4 EV, 1 nM) of the same compound?
A: 99.81 % of control and 96.49 % of control and 94.72 % of control and 113.88 % of control and 89.98 % of control and 98.97 % of control and 99.45 % of control and 90.47 % of control and 100.22 % of control and 101.63 % of control and 90.65 % of control and 110.29 % of control

Q: What about the “Collagen level, average” value ([2]; WI-26 VA4 EV, 3 nM) of the same compound?
A: 98.91 % of control

Q: And the “Collagen level, single replicates” value ([2]; WI-26 VA4 EV, 3 nM)?
A: 95.48 % of control and 110.90 % of control and 101.31 % of control and 98.76 % of control and 84.68 % of control and 101.40 % of control and 94.43 % of control and 83.51 % of control and 102.77 % of control and 119.57 % of control and 100.02 % of control and 94.04 % of control

Q: And the “Collagen level, average” value ([2]; WI-26 VA4 EV, 10 nM)?
A: 67.80 % of control

Q: And the “Collagen level, single replicates” value ([2]; WI-26 VA4 EV, 10 nM)?
A: 70.56 % of control and 73.60 % of control and 52.16 % of control and 80.52 % of control and 55.32 % of control and 68.13 % of control and 71.03 % of control and 51.88 % of control and 67.22 % of control and 78.89 % of control and 53.10 % of control and 91.18 % of control

Q: What about the “Collagen level, average” value ([2]; WI-26 VA4 EV, 30 nM) of the same compound?
A: 31.49 % of control

Q: What about the “Collagen level, single replicates” value ([2]; WI-26 VA4 EV, 30 nM) of the same compound?
A: 29.59 % of control and 29.66 % of control and 28.02 % of control and 34.01 % of control and 34.11 % of control and 31.81 % of control and 31.01 % of control and 33.29 % of control and 33.04 % of control and 33.86 % of control and 29.96 % of control and 29.53 % of control

Q: And the “Collagen level, average” value ([2]; WI-26 VA4 EV, 100 nM)?
A: 6.34 % of control

Q: What about the “Collagen level, single replicates” value ([2]; WI-26 VA4 EV, 100 nM) of the same compound?
A: 7.42 % of control and 5.23 % of control and 5.03 % of control and 5.46 % of control and 5.70 % of control and 6.01 % of control and 7.87 % of control and 7.08 % of control and 6.26 % of control and 7.39 % of control and 6.77 % of control and 5.82 % of control

Q: And the “Collagen level, average” value ([2]; WI-26 VA4 EV, 300 nM)?
A: 4.49 % of control

Q: And the “Collagen level, single replicates” value ([2]; WI-26 VA4 EV, 300 nM)?
A: 4.87 % of control and 3.68 % of control and 2.38 % of control and 3.50 % of control and 4.00 % of control and 5.84 % of control and 5.04 % of control and 4.31 % of control and 5.22 % of control and 6.88 % of control and 2.82 % of control and 5.35 % of control

Q: And the “Collagen level, average” value ([2]; WI-26 VA4 EV, 1000 nM)?
A: 5.68 % of control

Q: And the “Collagen level, single replicates” value ([2]; WI-26 VA4 EV, 1000 nM)?
A: 6.31 % of control and 4.51 % of control and 4.24 % of control and 5.46 % of control and 6.24 % of control and 6.40 % of control and 5.99 % of control and 5.56 % of control and 5.73 % of control and 6.61 % of control and 4.97 % of control and 6.15 % of control

Q: And the “HillSlope, collagen level” value ([2]; WI-26 VA4 EV, four-parameter fit)?
A: -1.549

Q: What about the “LogIC50, collagen level” value ([2]; WI-26 VA4 EV, log of concentration in nM, four-parameter fit) of the same compound?
A: 1.181
